Patent publication US6903104B2, “Indol-3-YL-2-oxoacetamide compounds and methods of use thereof” (National Health Research Institutes, priority 2001, dated 2005)

Assays:
[1] = system: colorectal DLD1 cancer cells; experiment: In vitro cytotoxicity MTS assay, colorectal DLD1; type: cell-based, human; settings: 72 hours
Experimental: (§1) A panel of human cancer cells, gastric NUGC3 and HR, nasopharyngeal HONE1, hepatocellular HEP G2 and HA-22T, colorectal DLD1, lung A549, prostate PC3, breast MCF7 and its adriamycin-resistant MCF7/ADR subline, uterus MES-SA and its adriamycin-resistant MES-SA/Dx5 subline, is purchased from Food Industry Research and Development Institute, Hsinchu, Taiwan R.O.C. or American Type Culture Collection, Manassas, Va. U.S.A., are used in in vitro cytotoxicity assays. The human cells are seeded at a cell density of 3000 or 4500 cells/100 μl/well in 96-well flat-bottom plates and incubated for 24 hours at 37° C. in a 5% CO2 incubator. The testing compounds are dissolved in dimethyl sulfoxide (DMSO) and further diluted into the culture medium for treatments of human cancer cells in vitro. The drug-containing media has a final DMSO concentration of ≦0.3%. The compounds of this invention are prepared in culture media for testing at a range of concentrations from 10, 1, 0.1, 0.01 to 0.001 μM. Each compound solution is (200 μl/well in duplicate) in the cell plates and is treated for 72 hours at 37° C., 5% CO2 in an incubator. Actinomycin D at 5 μM and 0.3% DMSO are used as the positive and vehicle controls, respectively. A colorimetric assay using 3-(4,5-dimethylthiazol-2-yl)-5-(3-carboxymethoxyphenyl)-2-(4-sulfophenyl)-2H-tetrazolium (MTS) and phenazine methosulfate (PMS) is used to determine the potency of the compounds. This assay measures cell viability based on the cellular activity in conversion of a tetrazolium salt into a colored soluble formazan product. The optical density (OD) values are measured at 490 nm with a 1420 multilabel counter VICTOR® from Wallac, Turku, Finland. All of the measured values are subtracted with that of the blank control wells without cells before further calculations. The efficacy data are expressed as a percentage normalized to the vehicle controls as calculated in the following formulae. Inhibitory potency (% of vehicle control)=[(OD490compound−OD490blank)/(OD490vehicle−OD490blank)]×100%. The concentration (IC50) of a test compound that inhibits 50% of the cellular activity is determined.

[2] = system: nasopharyngeal HONE1 cancer cells; experiment: In vitro cytotoxicity MTS assay, nasopharyngeal HONE1; type: cell-based, human; settings: 72 hours
Experimental: as §1

[3] = system: gastric HR cancer cells; experiment: In vitro cytotoxicity MTS assay, gastric HR; type: cell-based, human; settings: 72 hours
Experimental: as §1

[4] = system: adriamycin-resistant MES-SA/Dx5 subline; experiment: In vitro cytotoxicity MTS assay, adriamycin-resistant MES-SA/Dx5; type: cell-based, human; settings: 72 hours
Experimental: as §1

[5] = system: murine leukemic P388 cells; experiment: In vivo anticancer activity, murine leukemic P388 model; parameters: species or system DBA/2J mice; settings: P388-inoculated mice; for increase of life span: P.O., daily, 4×; for activity in the increase of life span (dose-response): oral
Experimental: The in vivo anticancer activities of the compounds are evaluated by the following murine leukemic P388 model. Inbred female DBA/2J mice of 4-5 week-old were purchased from the Charles River Laboratories Inc., Wilmington, Mass., USA and the National Laboratory Animals Breeding and Research Center, Taipei, Taiwan, ROC. Murine leukemic P388 cells are purchased from the Japanese Collection of Research Bioresources, Japan. P388 cells are cultured and propagated in RPMI1640 medium supplemented with 50 μM 2-mercaptoethanol and 10% fetal bovine serum. Mice at the age of 6 weeks were grouped as the treatment, negative control and positive control groups at 7 to 8 mice per group. All mice are intravenously inoculated with the P388 cells at one million per mouse one day before the treatments initiated. Compounds of this invention are dissolved in dimethyl sulfoxide (DMSO) and then diluted in 0.5% carboxymethyl cellulose with the final concentration of DMSO less than 0.5%. Different treatment groups are orally given (P.O.), respectively, with compounds of different doses for a pharmacological dose-response relationship. Mice of the negative control group are treated with the dosing vehicle, 0.5% carboxymethyl cellulose. Doxorubicin of the maximal tolerated dose, 10 mg/kg, is given intravenously as an experimental positive control. The cancer cell-inoculated animals are monitored twice daily. The time on which 50% of the P388-inoculated mice is still surviving is defined as the medium survival time and is used to calculate the percentage (normalized to the medium survival time of the control group) of increased in life span after treatment, which is then served as the index of treatment response.

[6] = system: human colorectal SW480 tumor xenograft; experiment: Antitumor activity, human colorectal SW480 tumor xenograft; type: in vivo, athymic nude mice
Experimental: Human colorectal SW480 cancer cells were subcutaneously implanted into the young male athymic nude mice at 1 million cells per mouse. The treatment schedule of 200 mg/kg daily oral administration for 6 weeks was initiated at the time which the tumor size reached 50˜100 mm^3. Compound was orally gavaged to the nude mice subcutaneously bearing human colorectal SW480 tumor xenograft based on the treatment schedule. The tumor size and body weight of the animals were monitored twice a week through out the 70-day period of observation. The tumor growth was suppressed by the daily oral treatments of compound 56. Tumor sizes of the treated and vehicle control groups were compared at the end of 70-day observation. The size of tumor mass subcutaneously implanted in the nude mice for the treated group was reduced to 26% compared to that of the vehicle control group at the end of the observation period.

Compound | IC50 [1] | IC50 [2] | IC50 [3] | IC50 [4] | increase of life span ([5]; 25 mg/kg) | increase of life span ([5]; 50 mg/kg) | increase of life span ([5]; 100 mg/kg) | increase of life span ([5]; 200 mg/kg) | activity in the increase of life span (dose-response) [5] | size of tumor mass compared to that of the vehicle control group ([6]; 200 mg/kg daily oral for 6 weeks, end of 70-day observation) | tumor growth ([6]; 200 mg/kg daily oral treatments) | toxicity as noted by loss of the body weight ([6]; oral multiple dosing, 200 mg/kg daily for 6 weeks)
Cc1cc(Cn2cc(C(=O)C(=O)Nc3cc(C)ns3)c3ccccc32)on1 [Compound 56] | 41 nM | 4 nM | 8 nM | 368 nM | 26 ± 27% | 57 ± 20% | 63 ± 17% | 100 ± 21% | dose-dependent activity | 26% | suppressed | no obvious toxicity
Cc1cc(NC(=O)C(=O)c2cn(Cc3ccc(C#N)cc3)c3ccccc23)sn1 [Compound 25] | 543 nM | 207 nM | 340 nM | 398 nM | 14 ± 1% | 27 ± 3% | 20 ± 8% | 46 ± 24% | dose-dependent activity | – | – | –
